The values below come from patent publication US10420741B2, “Megalin antagonist” (EA Pharma Co., Ltd., priority 2014, dated 2019).

Entries after “also recorded” stand apart in the source; their conditions may differ.

Series [1] concerns colistin-induced renal impairment. Put plainly: Colistin nephropathy in rats, urinary NAG/CRE (Example 3).
Experimental: Cilastatin and colistin were co-administered to rats and it was investigated whether or not nephropathy due to colistin was reduced by the megalin ligand antagonistic action of cilastatin.
In evaluating the colistin nephropathy reduction effect due to cilastatin, a colistin solution and a cilastatin solution were prepared as follows.
In the preparation of the colistin solution, first, a colistin stock solution (colistin concentration: 10 mg/mL) was prepared by dissolving 360 mg of colistin sulfate in 30 mL of a saline solution. The colistin stock solution was sterilized by filtration with a 22 mm PVDF membrane and then stored at 4° C. and a colistin administration solution was prepared by diluting the solution with a saline solution before the colistin administration. […]
The concentrations of urinary β-D-N-acetyl-glucosaminidase (NAG) and creatinine (CRE) in the recovered urine were each measured using a measurement kit (product name: CREP 2 and BUNK, both were measured by Roche Diagnostics Co., Ltd.) using a discrete method automatic clinical chemistry analyzer (product name: COBAS INTEGRA 400 plus, manufactured by Roche Diagnostics Co., Ltd.), and the urinary NAG/CRE values of each test group were calculated.
Series [2] relates to nephrotoxicity of cisplatin. The conditions noted are these: rats, reported in PTL 2; cited from earlier work.
For series [3], the target named is T1, megalin (Rattus norvegicus, UniProt P98158). The source says: Next, detailed description will be given of the present invention through the illustration of examples, and the like; however, the present invention is not limited thereto. In the following Examples and the like, purified megalin from rat kidneys according to the method described in NPL 5 was used as the megalin, cilastatin sodium (produced by Sigma-Aldrich Co. LLC.) was used as the cilastatin, colistin sulfate (produced by Sigma-Aldrich Co. LLC.) was used as the colistin, gentamicin produced by Sigma-Aldrich Co. LLC. was used as the gentamicin, vancomycin produced by Sigma-Aldrich Co. LLC. was used as the vancomycin, tenofovir produced by Sigma-Aldrich Co. LLC. was used as the tenofovir, and cisplatin produced by Bristol-Myers Co., Ltd., was used as the cisplatin.
T1 sequence (P98158 26-4660): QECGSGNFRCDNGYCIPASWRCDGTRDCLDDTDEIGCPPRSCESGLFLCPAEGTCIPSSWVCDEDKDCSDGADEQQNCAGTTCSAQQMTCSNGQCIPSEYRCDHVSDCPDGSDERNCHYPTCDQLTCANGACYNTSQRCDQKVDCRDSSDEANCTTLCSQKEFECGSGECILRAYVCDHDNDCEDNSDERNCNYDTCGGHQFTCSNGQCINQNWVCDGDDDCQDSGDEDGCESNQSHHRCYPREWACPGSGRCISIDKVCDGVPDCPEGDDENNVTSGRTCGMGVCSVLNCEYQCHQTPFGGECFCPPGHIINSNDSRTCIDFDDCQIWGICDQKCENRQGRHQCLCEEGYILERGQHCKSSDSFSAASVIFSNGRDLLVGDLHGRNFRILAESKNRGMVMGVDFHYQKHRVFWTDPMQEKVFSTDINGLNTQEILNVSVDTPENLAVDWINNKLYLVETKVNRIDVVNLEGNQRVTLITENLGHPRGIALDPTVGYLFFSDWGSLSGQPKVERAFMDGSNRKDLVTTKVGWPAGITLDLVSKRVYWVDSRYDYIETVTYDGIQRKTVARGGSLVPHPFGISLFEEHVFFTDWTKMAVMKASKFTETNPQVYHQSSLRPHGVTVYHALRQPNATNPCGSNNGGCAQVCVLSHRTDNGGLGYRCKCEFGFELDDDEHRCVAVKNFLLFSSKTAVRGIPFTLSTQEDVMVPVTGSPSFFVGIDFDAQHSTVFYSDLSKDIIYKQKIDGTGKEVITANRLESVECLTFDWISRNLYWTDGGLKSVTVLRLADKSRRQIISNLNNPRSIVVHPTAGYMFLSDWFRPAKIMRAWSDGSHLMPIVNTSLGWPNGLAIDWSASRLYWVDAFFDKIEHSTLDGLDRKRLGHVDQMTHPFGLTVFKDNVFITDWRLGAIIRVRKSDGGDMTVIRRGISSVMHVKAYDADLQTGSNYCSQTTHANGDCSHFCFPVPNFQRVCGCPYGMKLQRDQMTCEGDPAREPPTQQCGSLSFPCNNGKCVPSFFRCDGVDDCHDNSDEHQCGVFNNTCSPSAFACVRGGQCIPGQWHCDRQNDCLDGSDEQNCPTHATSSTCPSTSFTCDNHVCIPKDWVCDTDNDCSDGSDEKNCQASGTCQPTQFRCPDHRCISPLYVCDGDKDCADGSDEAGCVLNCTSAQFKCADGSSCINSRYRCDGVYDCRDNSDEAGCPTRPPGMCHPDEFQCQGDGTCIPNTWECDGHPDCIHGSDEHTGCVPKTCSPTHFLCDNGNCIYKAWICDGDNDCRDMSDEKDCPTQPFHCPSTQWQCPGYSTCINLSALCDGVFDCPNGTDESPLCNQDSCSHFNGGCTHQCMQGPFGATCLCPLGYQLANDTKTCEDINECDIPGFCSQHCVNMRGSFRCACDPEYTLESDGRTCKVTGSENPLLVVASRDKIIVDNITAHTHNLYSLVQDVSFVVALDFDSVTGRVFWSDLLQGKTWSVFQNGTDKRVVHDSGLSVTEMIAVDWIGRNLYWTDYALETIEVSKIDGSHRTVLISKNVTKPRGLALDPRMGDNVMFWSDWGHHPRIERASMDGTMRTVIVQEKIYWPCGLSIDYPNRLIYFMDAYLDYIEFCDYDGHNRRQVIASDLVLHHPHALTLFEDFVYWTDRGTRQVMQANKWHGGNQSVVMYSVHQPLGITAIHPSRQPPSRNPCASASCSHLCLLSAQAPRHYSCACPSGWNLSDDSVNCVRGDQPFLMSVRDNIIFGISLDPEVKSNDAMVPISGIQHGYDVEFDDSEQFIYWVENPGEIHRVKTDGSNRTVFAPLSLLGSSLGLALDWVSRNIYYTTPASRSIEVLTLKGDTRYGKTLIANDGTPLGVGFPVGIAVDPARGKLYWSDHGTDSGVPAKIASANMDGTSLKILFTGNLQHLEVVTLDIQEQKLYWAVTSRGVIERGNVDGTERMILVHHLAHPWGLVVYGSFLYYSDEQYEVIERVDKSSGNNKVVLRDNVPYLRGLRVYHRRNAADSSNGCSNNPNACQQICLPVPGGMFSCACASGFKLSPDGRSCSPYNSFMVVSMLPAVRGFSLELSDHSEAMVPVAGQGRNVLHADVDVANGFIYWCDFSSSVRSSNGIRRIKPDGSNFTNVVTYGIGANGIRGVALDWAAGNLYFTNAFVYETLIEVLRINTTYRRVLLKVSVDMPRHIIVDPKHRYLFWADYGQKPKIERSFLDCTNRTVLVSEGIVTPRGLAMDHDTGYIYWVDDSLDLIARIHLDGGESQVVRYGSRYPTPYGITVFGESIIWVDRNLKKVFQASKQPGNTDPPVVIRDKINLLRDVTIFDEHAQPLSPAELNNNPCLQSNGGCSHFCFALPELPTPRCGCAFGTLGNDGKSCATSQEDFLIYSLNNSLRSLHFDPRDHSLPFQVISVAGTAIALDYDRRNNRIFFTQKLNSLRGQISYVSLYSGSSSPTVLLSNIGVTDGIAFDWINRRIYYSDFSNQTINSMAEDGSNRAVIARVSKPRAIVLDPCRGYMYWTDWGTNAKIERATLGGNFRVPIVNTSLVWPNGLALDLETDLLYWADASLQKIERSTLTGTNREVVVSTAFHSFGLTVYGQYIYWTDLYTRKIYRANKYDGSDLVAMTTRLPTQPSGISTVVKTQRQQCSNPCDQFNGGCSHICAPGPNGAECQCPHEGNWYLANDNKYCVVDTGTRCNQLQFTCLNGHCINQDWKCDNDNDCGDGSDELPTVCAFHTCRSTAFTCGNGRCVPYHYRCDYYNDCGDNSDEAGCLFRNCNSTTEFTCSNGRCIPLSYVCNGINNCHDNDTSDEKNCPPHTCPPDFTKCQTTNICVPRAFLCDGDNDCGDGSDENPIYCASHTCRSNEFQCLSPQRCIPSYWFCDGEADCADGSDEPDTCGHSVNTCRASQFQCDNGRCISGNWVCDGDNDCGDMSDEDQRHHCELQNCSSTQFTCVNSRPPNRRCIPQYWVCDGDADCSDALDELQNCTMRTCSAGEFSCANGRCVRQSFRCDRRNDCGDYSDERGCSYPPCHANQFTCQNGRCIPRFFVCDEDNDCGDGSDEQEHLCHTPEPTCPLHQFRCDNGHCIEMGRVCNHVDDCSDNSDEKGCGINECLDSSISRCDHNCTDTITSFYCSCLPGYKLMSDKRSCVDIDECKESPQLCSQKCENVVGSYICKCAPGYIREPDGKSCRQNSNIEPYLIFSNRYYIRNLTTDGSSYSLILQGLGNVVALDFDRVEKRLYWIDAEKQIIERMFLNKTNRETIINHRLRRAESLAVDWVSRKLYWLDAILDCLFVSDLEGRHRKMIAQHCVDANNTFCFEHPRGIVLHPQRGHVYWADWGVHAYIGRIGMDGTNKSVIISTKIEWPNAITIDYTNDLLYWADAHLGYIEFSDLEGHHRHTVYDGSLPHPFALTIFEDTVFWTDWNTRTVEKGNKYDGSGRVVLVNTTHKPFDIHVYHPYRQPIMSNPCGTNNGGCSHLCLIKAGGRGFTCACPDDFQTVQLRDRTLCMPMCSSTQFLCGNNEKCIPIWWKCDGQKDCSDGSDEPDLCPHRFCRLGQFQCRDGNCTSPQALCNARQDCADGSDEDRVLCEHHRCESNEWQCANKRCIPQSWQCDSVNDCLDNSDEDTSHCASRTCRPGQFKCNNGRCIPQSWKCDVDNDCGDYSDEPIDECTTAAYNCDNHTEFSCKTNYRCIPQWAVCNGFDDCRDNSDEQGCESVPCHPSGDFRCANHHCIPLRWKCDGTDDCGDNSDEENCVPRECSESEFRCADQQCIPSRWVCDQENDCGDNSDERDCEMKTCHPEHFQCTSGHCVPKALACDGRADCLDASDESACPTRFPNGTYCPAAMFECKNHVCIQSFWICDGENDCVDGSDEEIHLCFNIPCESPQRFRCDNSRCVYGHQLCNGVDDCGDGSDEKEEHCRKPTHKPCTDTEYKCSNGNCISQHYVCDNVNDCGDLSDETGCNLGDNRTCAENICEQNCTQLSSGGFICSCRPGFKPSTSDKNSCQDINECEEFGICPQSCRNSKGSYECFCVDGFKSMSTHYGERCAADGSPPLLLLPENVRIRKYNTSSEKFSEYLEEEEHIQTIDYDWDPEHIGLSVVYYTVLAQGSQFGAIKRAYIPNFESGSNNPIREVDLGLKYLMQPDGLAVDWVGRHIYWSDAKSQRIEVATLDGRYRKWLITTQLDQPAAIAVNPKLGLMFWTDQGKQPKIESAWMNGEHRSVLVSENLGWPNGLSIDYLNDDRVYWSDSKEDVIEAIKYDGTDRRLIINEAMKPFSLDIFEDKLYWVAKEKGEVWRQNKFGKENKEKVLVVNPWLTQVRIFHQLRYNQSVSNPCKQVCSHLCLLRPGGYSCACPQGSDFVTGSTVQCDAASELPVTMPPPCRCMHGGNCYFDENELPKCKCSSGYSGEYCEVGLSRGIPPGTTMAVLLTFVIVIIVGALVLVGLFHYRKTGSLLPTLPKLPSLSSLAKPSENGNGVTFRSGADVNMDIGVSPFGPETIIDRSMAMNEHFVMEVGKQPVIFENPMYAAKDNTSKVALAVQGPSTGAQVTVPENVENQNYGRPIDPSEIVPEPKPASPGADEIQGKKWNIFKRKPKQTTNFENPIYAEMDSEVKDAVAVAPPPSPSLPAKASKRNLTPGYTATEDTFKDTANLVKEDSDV
The antagonism effect with respect to the binding of colistin to megalin due to cilastatin was investigated using the QCM method.
As a control, measurement and analysis were carried out in the same manner except that cilastatin was not injected (cilastatin injection amount: 0 μg).
The antagonistic action of cilastatin on the binding of gentamicin, vancomycin, cisplatin, and tacrolimus to megalin was investigated using the QCM method.
Specifically, the measurement and analysis of the frequency were carried out in the same manner as for Example 1 except that the injection amount of cilastatin was set to 4000 μg and 4000 μg of gentamicin was used instead of 240 μg of colistin.
In addition, the measurement and analysis of the frequency were carried out in the same manner as for Example 1 except that the injection amount of cilastatin was set to 5000 μg and 1000 μg of vancomycin was used instead of 240 μg of colistin.
In addition, the measurement and analysis of the frequency were carried out in the same manner as for Example 1 except that the injection amount of cilastatin was set to 10000 μg and 800 μg of cisplatin was used instead of 240 μg of colistin.
Furthermore, the measurement and analysis of the frequency were carried out in the same manner as for Example 1 except that the injection amount of cilastatin was set to 2000 μg and 160 μg of tacrolimus was used instead of 240 μg of colistin.

Series [4] has as its system kidney tissue (renal tubular cell damage). Briefly: Nephrotoxicity caused by colistin in C57BL/6 mice, PAS staining and KIM-1 Western blot (Example 4). Here is the method:
Division was made into a group in which 30 mg/kg/day of colistin was subcutaneously administered over four days to 12-week-old male C57BL/6 mice (colistin-administered group: colstin), a group in which 100 mg/kg/day of cilastatin was subcutaneously administered over four days in combination with the subcutaneous administration of 30 mg/kg/day of colistin over four days (colistin+cilastatin combination group: colstin+cilastatin), and, as a control, a group in which a physiological saline solution was subcutaneously administered over four days instead of colistin (saline group: saline), administration was performed in the same manner as the protocol of Reference Example 2 described above, after that, the kidney tissue was taken and histochemical staining (PAS staining) was performed.
Furthermore, using the extracted kidney tissue, the expression of KIM-1, which is a renal tubular cell damage marker, was confirmed by Western blot.
(In general: Immunoblotting shows a protein as a band on a membrane.)

Series [5] relates to ATCC25922 strain (E. coli standard strain). Put plainly: Disk method anti-microbial activity (Reference Example 4). It is filed as cell-based. The method, then: An ATCC25922 strain (E. coli standard strain) was cultured for 20 hours using Mueller Hinton agar (MHA) and then the cultured colonies were suspended in saline and adjusted to obtain a solution equivalent to McFarland turbidity standard 0.5. After uniformly coating and drying the microbial solution on the MHA, 10 μg of colistin, cilastatin, and colistin and cilastatin were each added to 6 mm Whatman filter paper discs, disposed at equal intervals on the MHA described above, and cultured for 20 hours at 37° C., and the blocking circles were compared.

Series [6] concerns the target T1, megalin. Put plainly: QCM method: binding ability to immobilized megalin (Reference Example 1). The conditions noted are these: megalin protein immobilized crystal, colistin 240 μg, gentamicin 4000 μg, vancomycin 1600 μg, cisplatin 400 μg, tenofovir 1200 μg. Also on record: purified megalin from rat kidneys according to the method described in NPL 5 was used as the megalin; from tissue; host or cells: rat kidney. The method, then:
The binding ability of colistin, gentamicin, vancomycin, cisplatin, and tenofovir with respect to megalin was analyzed using the quartz crystal microbalance method (QCM method).
Regarding the immobilization of megalin protein using the Immobilization Kit for AFFINIX (registered trademark) (manufactured by Initium), according to the protocol recommended in the kit, a megalin protein solution adjusted to 12 to 14 μg/mL using Buffer A included in the kit was immobilized by being placed on the crystal installed in the holder.
In more detail, 8 μL of each drug solution was injected to the megalin protein-immobilized crystal placed in the surface of water containing 8 mL of buffer, and the frequency was measured. As a control, measurement was also performed in the same manner with respect to a crystal where the megalin protein was not immobilized. The measurement data was analyzed using dedicated analysis software AQUA (produced by Initium).

In the next series the test system is proximal tubular cells. Briefly: Renal tubular cell damage by colistin in kidney specific mosaic-type megalin knockout mice (Reference Examples 2 and 3). In kind it is in vivo, mice (apoE cre/megalin loxP). The method, then: Renal tubular cell damage caused when colistin was administered to megalin mosaic-type knockout mice was analyzed.
First, 12-week-old kidney specific mosaic-type megalin knockout mice (apoE cre/megalin loxP) were used in the experiments (in these mice, genes expressing megalin in about 60% of proximal tubular cells were knocked out). With respect to these mice, the subcutaneous administration of colistin was performed over four days (30 mg/kg/day), after that, proximal tubular cells were analyzed and immunohistochemical staining was performed.
With the same method as in Reference Example 2, colistin was administered to renal-specific mosaic-type megalin knockout mice, after that, the proximal tubular cells were analyzed, and the expression of KIM-1 (Kidney Injury Molecule 1), which is an injury marker of proximal tubular cells, and the expression of megalin were confirmed using a fluorescent double staining method.

Setting [7] is: 10 μg on 6 mm filter paper disc, MHA, 20 hours at 37° C.
The mark [8] stands for this setting: colistin 30 mg/kg/day subcutaneous over four days.

For `CC1(C)C[C@@H]1C(=O)N/C(=C\CCCCSC[C@H](N)C(=O)O)C(=O)O` [cilastatin, (Z)-7-[[(R)-2-amino-2-carboxyethyl]thio]-2-[[[(S)-2,2-dimethylcyclopropyl]carbonyl]amino]-2-heptenoic acid], the colistin-induced renal impairment result in series [1] (co-administration of cilastatin 100 mg/kg with colistin, rats) is recorded as “colistin-induced renal impairment was reduced”. Also, in series [2], the “nephrotoxicity of cisplatin on co-administration with cilastatin” value is reported as “the nephrotoxicity was improved”. The “inhibition of binding of tacrolimus to megalin protein” value at megalin [3] (cilastatin 2000 μg before 160 μg tacrolimus) is reported as “inhibited by cilastatin”. Also, the “inhibition of binding of gentamicin to megalin protein” value at megalin [3] (cilastatin 4000 μg before 4000 μg gentamicin) is “inhibited by cilastatin”. Moreover, the “inhibition of binding of vancomycin to megalin protein” value on megalin [3] (cilastatin 5000 μg before 1000 μg vancomycin) is “inhibited by cilastatin”. At megalin [3] (cilastatin 10000 μg before 800 μg cisplatin), the “inhibition of binding of cisplatin to megalin protein” value is recorded as “inhibited by cilastatin”. Further, the “inhibition of binding of colistin to megalin protein” value at megalin [3] (cilastatin 800, 5000 or 10000 μg injected before 240 μg colistin) is “inhibited depending on the concentration of the cilastatin”. Moreover, in series [4] (cilastatin 100 mg/kg/day combined with colistin 30 mg/kg/day), the “renal tubular cell damage caused by colistin, histologically and biochemically” value is “remarkably improved”. For the same compound, the “blocking circle / anti-microbial activity” value in series [5] (setting [7]) is “a blocking circle was not formed and anti-microbial activity was not exhibited; also recorded: anti-microbial activity could not be seen”. In series [5] (colistin and cilastatin on the same disc), the “influence on the anti-microbial activity of colistin” value is “does not affect the anti-microbial activity of colistin”.

As for `N.N.[Cl][Pt][Cl]` [cisplatin], the “binding to megalin (frequency decrease after injection)” value at megalin [6] is “binding to megalin was confirmed”.

Turning to `C=CC[C@@H]1/C=C(\C)C[C@H](C)C[C@H](OC)[C@H]2O[C@@](O)(C(=O)C(=O)N3CCCC[C@H]3C(=O)O[C@H](/C(C)=C/[C@@H]3CC[C@@H](O)[C@H](OC)C3)[C@H](C)[C@@H](O)CC1=O)[C@H](C)C[C@@H]2OC` [tacrolimus], the “binding to megalin (frequency decrease after injection)” value on megalin [6] was “binding to megalin was confirmed”.

Turning to `C[C@H](Cn1cnc2c(N)ncnc21)OCP(=O)(O)O` [tenofovir], the “binding to megalin (frequency decrease after injection)” value at megalin [6] was “not possible to find the binding”.

As for `CN[C@H](CC(C)C)C(=O)N[C@H]1C(=O)N[C@@H](CC(N)=O)C(=O)N[C@H]2C(=O)N[C@H]3C(=O)N[C@H](C(=O)N[C@H](C(=O)O)c4cc(O)cc(O)c4-c4cc3ccc4O)[C@H](O)c3ccc(c(Cl)c3)Oc3cc2cc(c3O[C@@H]2O[C@H](CO)[C@@H](O)[C@H](O)[C@H]2O[C@H]2C[C@](C)(N)[C@H](O)[C@H](C)O2)Oc2ccc(cc2Cl)[C@H]1O` [vancomycin], the “binding to megalin (frequency decrease after injection)” value on megalin [6] is listed as “binding to megalin was confirmed”.

As for colistin, the “urinary NAG/CRE values relative to saline/saline group” value in series [1] (saline/colistin group, fifth day, colistin total 20.5 mg/kg over 5 days into jugular vein) was not below 4 times. Moreover, in series [4] (setting [8]), the “dilatation and cast formation of the tubules (PAS staining)” value is “dilatation and cast formation of the tubules was observed”; the “expression of KIM-1 in kidney tissue (Western blot)” value was “increased expression of KIM-1 was observed”. In series [5] (setting [7]), the “blocking circle / anti-microbial activity” value is listed as “a growth inhibition circle was formed” and the blocking circle diameter is recorded as 13.5 mm. Moreover, the “KIM-1 expression in proximal tubular cells” value in the series with proximal tubular cells (colistin 30 mg/kg/day subcutaneous over four days, fluorescent double staining with megalin) is reported as “KIM-1 was also expressed in the proximal tubular cells in which megalin, which remained without being knocked out, was expressed”. Moreover, the “vacuoles in cytoplasm of proximal tubular cells expressing megalin versus megalin knocked out cells” value with proximal tubular cells (colistin 30 mg/kg/day subcutaneous over four days, immunohistochemical staining) is on record as “numerous vacuoles (arrows) were observed in the cytoplasm”. In the series on proximal tubular cells (mosaic-type megalin knockout mice), the “dependence of proximal renal tubular cell damage on megalin expression” value was “largely depended on the expression of megalin”. In addition, at megalin [6], the “binding to megalin (frequency decrease after injection)” value is “binding to megalin was confirmed”.

With gentamicin, the “binding to megalin (frequency decrease after injection)” value at megalin [6] is on record as “binding to megalin was confirmed”.
